This passage reports melting point and pKa results from patent US7687624B2, “Process for the production of N-arylmorpholinones” (Merck Patent GmbH, priority 2003, dated 2010).

SMILES strings stand for the structures.

For orientation: melting point means the temperature, or range, at which the solid turns liquid. The term pKa denotes the pH at which an ionisable group is half protonated.

Settings in the first data set: not given
`O=C1COCCN1c1ccc([N+](=O)[O-])cc1` [Example 1, 4-(4-Nitrophenyl)-3-oxomorpholine] returned a melting point of 150 to 152 °C.

The conditions of another data set: pKa value of the amine; cited from earlier work.
On to `COc1ccc(N)cc1` [4-Methoxyaniline], for which the pKa is 5.4. As to `Nc1ccccc1[N+](=O)[O-]` [2-Nitroaniline], the pKa is −0.23. With `N#Cc1ccc(N)cc1` [4-Cyanoaniline], the pKa was 1.7. For the compound `Nc1cccc([N+](=O)[O-])c1` [3-Nitroaniline], the pKa is recorded as 2.5. Regarding `Nc1ccc(C(=O)c2ccccc2)cc1` [4-Aminobenzophenone], the pKa is on record as 2.2. On to `Cc1cc([N+](=O)[O-])ccc1N` [2-Methyl-4-nitroaniline], for which the pKa is 1.04. Regarding `COC(=O)c1ccc(N)cc1` [Methyl 4-aminobenzoate], the pKa is reported as 1.5. For `NCc1ccccc1` [Benzylamine], the pKa was 9.5.
